# According to publication PMC7665024, “Anti-apoptotic BCL-2 regulation by changes in dynamics of its long unstructured loop” (Communications Biology, 2020):
# “Also recorded” adds a separate entry of the source.
# B1: EEE (protein)
# chain: MAHAGRTGYDNREIVMKYIHYKLSQRGYEWDAGDVGAAPPGAAPAPGIFSSQPGHTPHPAASRDPVAREEPLQTPAAPGAAAGPALEPVPPVVHLTLRQAGDDFSRRYRRDFAEMSSQLHLTPFTARGRFATVVEELFRDGVNWGRIVAFFEFGGVMCVESVNREMSPLVDNIALWMTEYLNRHLHTWIQDNGGWDAFVELYGPSMRPLFDFSWLSL
# modifications: Pacific Blue (maleimide) on the native cysteine 158; left off: His6, C-terminal, state not stated
# Key:
# [1] = system: BAX; assay: FRAP-GUV pore-forming activity of BAX, 70-kDa F-dextran;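 on FRAP pore-forming activity, average: unitless ratio D/D0 relative to diffusion coefficient after Triton X-100 disruption of GUVs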;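 on FRAP pore-forming activity: unitless ratio D/D0 relative to diffusion coefficient after Triton X-100 disruption of GUVs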; assay type: biochemical, mouse; set-up: FRAP pore-forming activity / FRAP pore-forming activity, average / p (FRAP-70k-p), Average: unit not given here; conditions: for pore-forming activity / effect on BAX-induced membrane pores on GUV (in words): 10- and 70-kDa F-dextran, BAX 1 µM, BimBH3 2 µM, BCL-2 1 µM, ABT-199 30 µM, room temperature, Fig. 2c; for FRAP pore-forming activity, average / FRAP pore-forming activity: 70 kDa F-dextran; for FRAP pore-forming activity, average: mean of trials
# Method: (§1) Briefly, GUVs were incubated with the proteins of interest over a period of time (Fig. 2c), followed by photobleaching within individual GUVs. A series of fluorescent images were collected over time after the photobleaching and then analyzed to yield the diffusion coefficients of Fluor molecules (including FITC-labeled 70-kDa, and Alexa-647-labeled 10-kDa probes) using the theoretical approach detailed in the “Methods” section. As Fluor molecules are homogeneously dispersed in the solution (outside and inside of GUVs) before the incubation with BAX and activators, it is reasonable to expect that the larger the induced pore area on the surface of a GUV, the greater the diffusion coefficient. Thus, the diffusion coefficient is directly related to the pore-forming activity of activated BAX. As the pore-forming activity is proportional to the concentration of BAX[18], we fixed the total amount of added BAX in all of the measurements below (see the “Methods” section).
# (§2) Full-length BAX and variants were prepared as previously described[18],[22],[35]. Mouse BAX was cloned into pTYB1 vector (New England Biolabs, Inc.), resulting pTYB1-BAX construct. The pTYB1-BAX construct encoding a fusion protein of BAX with chitin-binding peptide was separated by a self-cleavable intein tag to obtain a full-length BAX. Wild-type BAX has two native cysteine residues at 62 and 126. Cysteine-free construct (C62S/C126S) was used to prepare single-cysteine BAX variants for conjugating fluorescence probes (e.g., BAX136C in Fig. 1d). Point mutations of recombinant BAX were generated using a QuikChange mutagenesis kit. Proteins were expressed in E. coli (ER2566) strain (New England Biolabs, Inc.) and purified without detergent. Bacterial cultures were grown at 37 °C in LB medium containing 0.1 g/L ampicillin to reach an OD600 of 1.0. BAX expression was induced by addition of 0.3 mM IPTG at 30 °C for 6−8 h. The cells were harvested by centrifugation and resuspended in ice-cold lysis buffer (20 mM Tris–HCl, pH 7.0, 500 mM NaCl and 1 mM PMSF). The resuspended pellet was sonicated on ice for 30 min, followed by centrifugation at 12,800 × g for 50 min. […] The resins were incubated in a pre-equilibrated buffer (20 mM sodium phosphate, pH 8.0, 100 mM NaCl, 60 mM dithiothreitol (DTT)) for 48 h. Proteins were eluted from column and further purified by a SEC using a HiLoad 16/60 Superdex 75 column (GE Healthcare) pre-equilibrated in PB buffer (20 mM sodium phosphate, pH 7.4, 100 mM NaCl). Purified proteins were confirmed by SDS–PAGE with Coomassie blue staining. Protein concentration was determined using absorption spectroscopy at 280 nm.
# (§3) All lipids used were purchased from Avanti Polar Lipids. […] Texas Red 1,2-dihexadecanoyl-sn-glycero-3-phosphoethanolamine (TR-DPPE) (Invitrogen) of 0.05% was added to the lipid mixture for virtualization of GUV[18],[26],[27]. GUVs were prepared with the gel-assisted swelling on a polyvinyl alcohol (PVA) gel[39]. A 5% (w/w) solution of PVA (MW 145,000) was prepared by stirring PVA in ddH2O while heating at 90 °C. PVA solution was spread on a microscope coverslip (18 × 18 mm, Matsunami, Japan) and then dried at 50 °C. Lipid mixture (1 mg/mL) dissolved in chloroform were spread on the dry PVA film and placed under vacuum for 30 min to evaporate the solvent. Lipids were rehydrated for 1 h in PB buffer. The resulting GUVs were transferred to an Eppendorf tube using blunt tips.
# (§4) FRAP measurements were performed as described previously. […] All reactions were at room temperature and the final volume was 200 μL.
# [2] = system: BAX; assay: FRAP-GUV pore-forming activity of BAX, 10-kDa F-dextran; assay type: biochemical, mouse; set-up: unit not given here
# Method: as §1, §2, §3, §4
# [3] = 10 kDa F-dextran, mean of trials
molecule,measurement,setting,value
"CC1(C)CCC(CN2CCN(c3ccc(C(=O)NS(=O)(=O)c4ccc(NCC5CCOCC5)c([N+](=O)[O-])c4)c(Oc4cnc5[nH]ccc5c4)c3)CC2)=C(c2ccc(Cl)cc2)C1 [ABT-199, Venetoclax, reference compound]",pore-forming activity / effect on BAX-induced membrane pores on GUV (in words),[1],BimBH3 is released from EEE to induce BAX activation and membrane pores
same,"FRAP pore-forming activity, average",[1],0.0000762
same,FRAP pore-forming activity,[1]; trial1,0.0000000
same,FRAP pore-forming activity,[1]; trial2,0.000165
same,FRAP pore-forming activity,[1]; trial3,0.0000000
same,FRAP pore-forming activity,[1]; trial4,0.000165
same,FRAP pore-forming activity,[1]; trial5,0.0000000
same,FRAP pore-forming activity,[1]; trial6,0.0000000
same,FRAP pore-forming activity,[1]; trial7,0.000165
same,FRAP pore-forming activity,[1]; trial8,0.0000000
same,FRAP pore-forming activity,[1]; trial9,0.0000000
same,FRAP pore-forming activity,[1]; trial10,0.0000000
same,FRAP pore-forming activity,[1]; trial11,0.000165
same,FRAP pore-forming activity,[1]; trial12,0.000165
same,FRAP pore-forming activity,[1]; trial13,0.000165
same,"FRAP pore-forming activity, average",[2]; [3],0.0002024
same,FRAP pore-forming activity,"[2]; 10 kDa F-dextran, trial1",0.0000000
same,FRAP pore-forming activity,"[2]; 10 kDa F-dextran, trial2",0.0001754
same,FRAP pore-forming activity,"[2]; 10 kDa F-dextran, trial3",0.0000000
same,FRAP pore-forming activity,"[2]; 10 kDa F-dextran, trial4",0.0001754
same,FRAP pore-forming activity,"[2]; 10 kDa F-dextran, trial5",0.0000000
same,FRAP pore-forming activity,"[2]; 10 kDa F-dextran, trial6",0.0000000
same,FRAP pore-forming activity,"[2]; 10 kDa F-dextran, trial7",0.0001754
same,FRAP pore-forming activity,"[2]; 10 kDa F-dextran, trial8",0.0008772
same,FRAP pore-forming activity,"[2]; 10 kDa F-dextran, trial9",0.0007018
same,FRAP pore-forming activity,"[2]; 10 kDa F-dextran, trial10",0.0000000
same,FRAP pore-forming activity,"[2]; 10 kDa F-dextran, trial11",0.0001754
same,FRAP pore-forming activity,"[2]; 10 kDa F-dextran, trial12",0.0001754
same,FRAP pore-forming activity,"[2]; 10 kDa F-dextran, trial13",0.0001754
BAX: full-length mouse BAX; in FRET the single-cysteine variant BAX136C labeled with AL488 [reference compound],pore-forming activity / effect on BAX-induced membrane pores on GUV (in words),[1],"neither BAX nor EEE, in the absence of pro-apoptotic BimBH3, is able to induce large membrane pores on GUV"
same,"FRAP pore-forming activity, average",[1],0.004165
same,FRAP pore-forming activity,[1]; trial1,0.0008251
same,FRAP pore-forming activity,[1]; trial2,0.006931
same,FRAP pore-forming activity,[1]; trial3,0.002475
same,FRAP pore-forming activity,[1]; trial4,0.000495
same,FRAP pore-forming activity,[1]; trial5,0.00132
same,FRAP pore-forming activity,[1]; trial6,0.001155
same,FRAP pore-forming activity,[1]; trial7,0.003135
same,FRAP pore-forming activity,[1]; trial8,0.001155
same,FRAP pore-forming activity,[1]; trial9,0.000495
same,FRAP pore-forming activity,[1]; trial10,0.0008251
same,FRAP pore-forming activity,[1]; trial11,0.00264
same,FRAP pore-forming activity,[1]; trial12,0.00231
same,FRAP pore-forming activity,[1]; trial13,0.002145
same,FRAP pore-forming activity,[1]; trial14,0.005776
same,FRAP pore-forming activity,[1]; trial15,0.000165
same,FRAP pore-forming activity,[1]; trial16,0.000495
same,FRAP pore-forming activity,[1]; trial17,0.01485
same,FRAP pore-forming activity,[1]; trial18,0.0132
same,FRAP pore-forming activity,[1]; trial19,0.01155
same,FRAP pore-forming activity,[1]; trial20,0.002805
same,FRAP pore-forming activity,[1]; trial21,0.01271
same,"p (FRAP-70k-p), Average","[1]; 70 kDa, Average of replicates (Count: BAX 21; BAX + BimBH3 16; BAX + BimBH3 + EEE 19; + EEE-PB 8; + EEE+ABT-199 5)",0.004165
same,"FRAP pore-forming activity, average",[2]; [3],0.009408
same,FRAP pore-forming activity,"[2]; 10 kDa F-dextran, trial1",0.008947
same,FRAP pore-forming activity,"[2]; 10 kDa F-dextran, trial2",0.02404
same,FRAP pore-forming activity,"[2]; 10 kDa F-dextran, trial3",0.006842
same,FRAP pore-forming activity,"[2]; 10 kDa F-dextran, trial4",0.00807
same,FRAP pore-forming activity,"[2]; 10 kDa F-dextran, trial5",0.01263
same,FRAP pore-forming activity,"[2]; 10 kDa F-dextran, trial6",0.01719
same,FRAP pore-forming activity,"[2]; 10 kDa F-dextran, trial7",0.004737
same,FRAP pore-forming activity,"[2]; 10 kDa F-dextran, trial8",0.002982
same,FRAP pore-forming activity,"[2]; 10 kDa F-dextran, trial9",0.002807
same,FRAP pore-forming activity,"[2]; 10 kDa F-dextran, trial10",0.02035
same,FRAP pore-forming activity,"[2]; 10 kDa F-dextran, trial11",0.007719
same,FRAP pore-forming activity,"[2]; 10 kDa F-dextran, trial12",0.003684
same,FRAP pore-forming activity,"[2]; 10 kDa F-dextran, trial13",0.01684
same,FRAP pore-forming activity,"[2]; 10 kDa F-dextran, trial14",0.0007018
same,FRAP pore-forming activity,"[2]; 10 kDa F-dextran, trial15",0.003509
same,FRAP pore-forming activity,"[2]; 10 kDa F-dextran, trial16",0.009474
same,"FRAP pore-forming activity, average","[2]; 10 kDa, Average of replicates (Count: BAX 16; BAX + BimBH3 19; BAX + BimBH3 + EEE 22; + EEE-PB 4; + EEE+ABT-199 5)",0.009408
B1,pore-forming activity / effect on BAX-induced membrane pores on GUV (in words),[1],"neither BAX nor EEE, in the absence of pro-apoptotic BimBH3, is able to induce large membrane pores on GUV; also recorded: the pore-forming ability of BAX is clearly inhibited by the presence of EEE"
same,"FRAP pore-forming activity, average",[1],0.0009376
same,FRAP pore-forming activity,[1]; trial1,0.000495
same,FRAP pore-forming activity,[1]; trial2,0.0006601
same,FRAP pore-forming activity,[1]; trial3,0.000495
same,FRAP pore-forming activity,[1]; trial4,0.0009901
same,FRAP pore-forming activity,[1]; trial5,0.0008251
same,FRAP pore-forming activity,[1]; trial6,0.000495
same,FRAP pore-forming activity,[1]; trial7,0.0008251
same,FRAP pore-forming activity,[1]; trial8,0.000495
same,FRAP pore-forming activity,[1]; trial9,0.00132
same,FRAP pore-forming activity,[1]; trial10,0.0008251
same,FRAP pore-forming activity,[1]; trial11,0.0008251
same,FRAP pore-forming activity,[1]; trial12,0.0008251
same,FRAP pore-forming activity,[1]; trial13,0.001155
same,FRAP pore-forming activity,[1]; trial14,0.0009901
same,FRAP pore-forming activity,[1]; trial15,0.002475
same,FRAP pore-forming activity,[1]; trial16,0.000495
same,FRAP pore-forming activity,[1]; trial17,0.0006601
same,FRAP pore-forming activity,[1]; trial18,0.000495
same,FRAP pore-forming activity,[1]; trial19,0.002475
same,FRAP pore-forming activity,[1]; trial20,0.0008251
same,FRAP pore-forming activity,[1]; trial21,0.0006601
same,FRAP pore-forming activity,[1]; trial22,0.00132
same,"FRAP pore-forming activity, average",[2]; [3],0.001715
same,FRAP pore-forming activity,"[2]; 10 kDa F-dextran, trial1",0.003333
same,FRAP pore-forming activity,"[2]; 10 kDa F-dextran, trial2",0.0005263
same,FRAP pore-forming activity,"[2]; 10 kDa F-dextran, trial3",0.001579
same,FRAP pore-forming activity,"[2]; 10 kDa F-dextran, trial4",0.002807
same,FRAP pore-forming activity,"[2]; 10 kDa F-dextran, trial5",0.002982
same,FRAP pore-forming activity,"[2]; 10 kDa F-dextran, trial6",0.001754
same,FRAP pore-forming activity,"[2]; 10 kDa F-dextran, trial7",0.0005263
same,FRAP pore-forming activity,"[2]; 10 kDa F-dextran, trial8",0.002807
same,FRAP pore-forming activity,"[2]; 10 kDa F-dextran, trial9",0.0005263
same,FRAP pore-forming activity,"[2]; 10 kDa F-dextran, trial10",0.0005263
same,FRAP pore-forming activity,"[2]; 10 kDa F-dextran, trial11",0.0005263
same,FRAP pore-forming activity,"[2]; 10 kDa F-dextran, trial12",0.001053
same,FRAP pore-forming activity,"[2]; 10 kDa F-dextran, trial13",0.0005263
same,FRAP pore-forming activity,"[2]; 10 kDa F-dextran, trial14",0.002632
same,FRAP pore-forming activity,"[2]; 10 kDa F-dextran, trial15",0.001053
same,FRAP pore-forming activity,"[2]; 10 kDa F-dextran, trial16",0.002632
same,FRAP pore-forming activity,"[2]; 10 kDa F-dextran, trial17",0.001404
same,FRAP pore-forming activity,"[2]; 10 kDa F-dextran, trial18",0.003684
